One may read the IC50 as the concentration needed to halve the response being measured.

The target of the experiment is interaction of human SOS1 (SOS1) with human K-RasG12C (Homo sapiens (Human), UniProt Q07889). The experiment is described as follows: Biochemical assay: hK-RasG12C interaction assay with hSOS1 (HTRF). Particulars: GST-hK-RasG12C with His-hSOS1, 60 min incubation at 20° C., mean, read-out: K-RasG12C - SOS interaction assay IC50 (mean). The format is binding. The essentials: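 Compounds, duplicates at 11 concentrations from 0.073 nM to 20 µM, were preincubated 2 min with 10 nM GST-hK-RasG12C, then 20 nM His-hSOS1 was added, all at 20 °C. After 60 min, 665/620 nm HTRF ratio normalized to DMSO and SOS1-free controls; IC50 by 4-parameter fit.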
interaction of human SOS1 (SOS1) with human K-RasG12C, sequence (Q07889 564-1049 limits assumed): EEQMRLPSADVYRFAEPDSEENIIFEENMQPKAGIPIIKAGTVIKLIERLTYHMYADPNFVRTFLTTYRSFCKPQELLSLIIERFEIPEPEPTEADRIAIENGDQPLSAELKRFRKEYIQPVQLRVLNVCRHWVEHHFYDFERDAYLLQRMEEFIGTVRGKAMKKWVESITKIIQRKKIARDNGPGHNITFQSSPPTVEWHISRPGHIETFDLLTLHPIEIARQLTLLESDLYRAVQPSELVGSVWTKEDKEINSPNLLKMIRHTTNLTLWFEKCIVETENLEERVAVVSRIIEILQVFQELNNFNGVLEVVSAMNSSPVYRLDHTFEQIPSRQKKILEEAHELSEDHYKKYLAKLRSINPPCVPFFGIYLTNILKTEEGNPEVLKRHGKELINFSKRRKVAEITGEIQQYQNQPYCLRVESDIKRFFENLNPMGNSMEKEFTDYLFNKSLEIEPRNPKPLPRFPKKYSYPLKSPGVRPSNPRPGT
Background: Time-resolved FRET reads energy transfer from a long-lived donor to a nearby acceptor.

Turning to `[2H]C([2H])([2H])[C@]([2H])(Nc1nc(C)nc2cnc(P3(=O)CCN(C(C)=O)CC3)cc12)c1cccc(C(F)(F)F)c1C` [Example 138, 1-acetyl-4-(2-methyl-4-{[(1S)-1-[2-methyl-3-(trifluoromethyl)phenyl](^2H4)ethyl]amino}pyrido[3,4-d]pyrimidin-6-yl)-1,4lambda^5-azaphosphinan-4-one], the IC50 amounted to 6.01 nM.

Take `COCC(F)(F)c1cccc([C@@H](C)Nc2nc(C)nc3cnc(P4(=O)CCN(C(C)=O)CC4)cc23)c1F` [Example 139, 1-acetyl-4-[4-({(1R)-1-[3-(1,1-difluoro-2-methoxyethyl)-2-fluorophenyl]ethyl}amino)-2-methylpyrido[3,4-d]pyrimidin-6-yl]-1,4lambda^5-azaphosphinan-4-one]: the IC50 is 5.4 nM.

As for `COC(C)(C)C(F)(F)c1cccc([C@@H](C)Nc2nc(C)nc3cnc(P4(=O)CCN(C(C)=O)CC4)cc23)c1F` [Example 140, 1-acetyl-4-[4-({(1R)-1-[3-(1,1-difluoro-2-methoxy-2-methylpropyl)-2-fluorophenyl]ethyl}amino)-2-methylpyrido[3,4-d]pyrimidin-6-yl]-1,4lambda^5-azaphosphinan-4-one], the IC50 turned out to be 11.4 nM.

With `CC(=O)N1CCP(=O)(c2cc3c(N[C@H](C)c4cccc(C(C)(F)F)c4)nc(C)nc3cn2)CC1` [Example 141, 1-acetyl-4-[4-({(1R)-1-[3-(1,1-difluoroethyl)phenyl]ethyl}amino)-2-methylpyrido[3,4-d]pyrimidin-6-yl]-1,4lambda^5-azaphosphinan-4-one], the IC50 is 12.8 nM.

For the compound `CC(=O)N1CCP(=O)(c2cc3c(N[C@H](C)c4cccc(C(F)(F)F)c4F)nc(C)nc3cn2)CC1` [Example 142, 1-acetyl-4-[4-{{(1R)-1-[2-fluoro-3-(trifluoromethyl)phenyl]ethyl}amino)-2-methylpyrido[3,4-d]pyrimidin-6-yl]-1,4lambda^5-azaphosphinan-4-one], the IC50 was 6.3 nM.

With `COCC(F)(F)c1cccc([C@@H](C)Nc2nc(C)nc3cnc(P4(=O)CCN(C(C)=O)CC4)cc23)c1` [Example 143, 1-acetyl-4-[4-({(1R)-1-[3-(1,1-difluoro-2-methoxyethyl)phenyl]ethyl}amino)-2-methylpyrido[3,4-d]pyrimidin-6-yl]-1,4lambda^5-azaphosphinan-4-one], the concentration for half-maximal inhibition (IC50) was found to be 12.6 nM.

For the compound `COc1nc2nc(C)nc(N[C@H](C)c3cccc(C(F)(F)F)c3C)c2cc1P1(=O)CCN(C(C)=O)CC1` [Example 144, 1-acetyl-4-[7-methoxy-2-methyl-4-({(1R)-1-[2-methyl-3-(trifluoromethyl)phenyl]ethyl}amino)pyrido[2,3-d]pyrimidin-6-yl]-1,4lambda^5-azaphosphinan-4-one], the IC50 was determined as 1.97 nM.

As for `CC(=O)N1CCP(=O)(c2cc3c(N[C@H](C)c4cccc(C(F)(F)F)c4C)nc(C)nc3nc2C)CC1` [Example 145, 1-acetyl-4-[2,7-dimethyl-4-({(1R)-1-[2-methyl-3-(trifluoromethyl)phenyl]ethyl}amino)pyrido[2,3-d]pyrimidin-6-yl]-1,4lambda^5-azaphosphinan-4-one], the IC50 is 4.35 nM.

Take `CC(=O)N1CCP(=O)(c2cc3c(N[C@H](C)c4cccc(C(F)(F)F)c4C)nc(C)nc3c(C)n2)CC1` [Example 146, (R)-1-(4-(2,8-dimethyl-4-((1-(2-methyl-3-(trifluoromethyl)phenyl)ethyl)amino)pyrido[3,4-d]pyrimidin-6-yl)-4-oxido-1,4-azaphosphinan-1-yl)ethan-1-one]: the IC50 came to 81 nM.

Take `CC(=O)N1CCP(=O)(c2cnc3nc(C)nc(N[C@H](C)c4cccc(C(F)(F)F)c4C)c3c2)CC1` [Example 147, 1-acetyl-4-[2-methyl-4-({(1R)-1-[2-methyl-3-(trifluoromethyl)phenyl]ethyl}amino)pyrido[2,3-d]pyrimidin-6-yl]-1,4lambda^5-azaphosphinan-4-one]: the half-maximal inhibitory concentration (IC50) came out at 4.51 nM.

For the compound `CO[C@@H](C)C(=O)N1CCP(=O)(c2cc3c(N[C@H](C)c4cccc(C(F)F)c4F)nc(C)nc3cn2)CC1` [Example 149, 4-[4-{{(1R)-1-[3-(difluoromethyl)-2-fluorophenyl]ethyl}amino)-2-methylpyrido[3,4-d]pyrimidin-6-yl]-1-[(2S)-2-methoxypropanoyl]-1,4lambda^5-azaphosphinan-4-one], the IC50 is 18 nM.

On to `Cc1nc(N[C@H](C)c2cccc(C(F)F)c2F)c2cc(P3(=O)CCN(C(=O)[C@@H](C)O)CC3)ncc2n1` [Example 150, 4-[4-{{(1R)-1-[3-(difluoromethyl)-2-fluorophenyl]ethyl}amino)-2-methylpyrido[3,4-d]pyrimidin-6-yl]-1-[(2R)-2-hydroxypropanoyl]-1,4lambda^5-azaphosphinan-4-one], for which the IC50 came to 4.76 nM.

For `Cc1nc(N[C@H](C)c2cccc(C(F)F)c2F)c2cc(P3(=O)CCN(C(=O)C4(F)CC4)CC3)ncc2n1` [Example 151, 4-[4-{{(1R)-1-[3-(difluoromethyl)-2-fluorophenyl]ethyl}amino)-2-methylpyrido[3,4-d]pyrimidin-6-yl]-1-(1-fluorocyclopropane-1-carbonyl)-1,4lambda^5-azaphosphinan-4-one], the half-maximal inhibitory concentration (IC50) stood at 12.2 nM.

For `Cc1nc(N[C@H](C)c2cccc(C(F)F)c2F)c2cc(P3(=O)CCN(C(=O)C4(C#N)CC4)CC3)ncc2n1` [Example 152, 1-{4-[4-{{(1R)-1-[3-(difluoromethyl)-2-fluorophenyl]ethyl}amino)-2-methylpyrido[3,4-d]pyrimidin-6-yl]-4-oxo-1,4lambda5-azaphosphinane-1-carbonyl}cyclopropane-1-carbonitrile], the IC50 was found to be 12.7 nM.

For the compound `Cc1nc(N[C@H](C)c2cccc(C(F)F)c2F)c2cc(P3(=O)CCN(C(=O)C(C)C)CC3)ncc2n1` [Example 153, 4-[4-({(1R)-1-[3-(difluoromethyl)-2-fluorophenyl]ethyl}amino)-2-methylpyrido[3,4-d]pyrimidin-6-yl]-1-(2-methylpropanoyl)-1,4lambda^5-azaphosphinan-4-one], the half-inhibitory concentration (IC50) stood at 7.4 nM.

For the compound `COCC(=O)N1CCP(=O)(c2cc3c(N[C@H](C)c4cccc(C(F)F)c4F)nc(C)nc3cn2)CC1` [Example 154, 4-[4-{{(1R)-1-[3-(difluoromethyl)-2-fluorophenyl]ethyl}amino)-2-methylpyrido[3,4-d]pyrimidin-6-yl]-1-(methoxyacetyl)-1,4lambda^5-azaphosphinan-4-one], the concentration for half-maximal inhibition (IC50) turned out to be 6.15 nM.

As to `CO[C@H](C)C(=O)N1CCP(=O)(c2cc3c(N[C@H](C)c4cccc(C(F)F)c4F)nc(C)nc3cn2)CC1` [Example 155, 4-[4-{{(1R)-1-[3-(difluoromethyl)-2-fluorophenyl]ethyl}amino)-2-methylpyrido[3,4-d]pyrimidin-6-yl]-1-[(2R)-2-methoxypropanoyl]-1,4lambda^5-azaphosphinan-4-one], the half-maximal inhibitory concentration (IC50) turned out to be 11.1 nM.

As to `Cc1nc(N[C@H](C)c2cccc(C(F)F)c2F)c2cc(P3(=O)CCN(C(=O)C4(O)CC4)CC3)ncc2n1` [Example 156, 4-[4-{{(1R)-1-[3-(difluoromethyl)-2-fluorophenyl]ethyl}amino)-2-methylpyrido[3,4-d]pyrimidin-6-yl]-1-(1-hydroxycyclopropane-1-carbonyl)-1,4lambda^5-azaphosphinan-4-one], the IC50 was determined as 11.4 nM.

Take `Cc1nc(N[C@H](C)c2cccc(C(F)F)c2F)c2cc(P3(=O)CCN(C(=O)[C@H](C)O)CC3)ncc2n1` [Example 157, 4-[4-{{(1R)-1-[3-(difluoromethyl)-2-fluorophenyl]ethyl}amino)-2-methylpyrido[3,4-d]pyrimidin-6-yl]-1-[(2S)-2-hydroxypropanoyl]-1,4lambda^5-azaphosphinan-4-one]: the IC50 came out at 5.04 nM.

On to `Cc1nc(N[C@H](C)c2cccc(C(F)F)c2F)c2cc(P3(=O)CCN(C(=O)C4COC4)CC3)ncc2n1` [Example 158, 4-[4-{{(1R)-1-[3-(difluoromethyl)-2-fluorophenyl]ethyl}amino)-2-methylpyrido[3,4-d]pyrimidin-6-yl]-1-(oxetane-3-carbonyl)-1,4lambda^5-azaphosphinan-4-one], for which the IC50 worked out at 7.89 nM.

Regarding `Cc1nc(N[C@H](C)c2cccc(C(F)F)c2F)c2cc(P3(=O)CCN(C(=O)C4(C(F)F)CC4)CC3)ncc2n1` [Example 159, 1-[1-(difluoromethyl)cyclopropane-1-carbonyl]-4-[4-{{(1R)-1-[3-(difluoromethyl)-2-fluorophenyl]ethyl}amino)-2-methylpyrido[3,4-d]pyrimidin-6-yl]-1,4lambda^5-azaphosphinan-4-one], the IC50 was 12.7 nM.

As for `Cc1nc(N[C@H](C)c2cccc(C(F)F)c2F)c2cc(P3(=O)CCN(C(=O)C4CC(F)(F)C4)CC3)ncc2n1` [Example 160, 1-(3,3-difluorocyclobutane-1-carbonyl)-4-[4-({(1R)-1-[3-(difluoromethyl)-2-fluorophenyl]ethyl}amino)-2-methylpyrido[3,4-d]pyrimidin-6-yl]-1,4lambda^5-azaphosphinan-4-one], the IC50 turned out to be 7.87 nM.

For `Cc1nc(N[C@H](C)c2cccc(C(F)F)c2F)c2cc(P3(=O)CCN(C(=O)c4cnn(C)c4)CC3)ncc2n1` [Example 161, 4-[4-{{(1R)-1-[3-(difluoromethyl)-2-fluorophenyl]ethyl}amino)-2-methylpyrido[3,4-d]pyrimidin-6-yl]-1-(1-methyl-1H-pyrazole-4-carbonyl)-1,4lambda^5-azaphosphinan-4-one], the concentration for half-maximal inhibition (IC50) turned out to be 13.4 nM.

`Cc1nc(N[C@H](C)c2cccc(C(F)(F)F)c2C)c2cc(P3(=O)CCN(C(=O)CC#N)CC3)ncc2n1` [Example 162, 3-{4-[2-methyl-4-({(1R)-1-[2-methyl-3-(trifluoromethyl)phenyl]ethyl}amino)pyrido[3,4-d]pyrimidin-6-yl]-4-oxo-1,4lambda^5-azaphosphinan-1-yl}-3-oxopropanenitrile]: the half-inhibitory concentration (IC50) is 272 nM.

Source of the values: patent publication US20240247015A1, “PHOSPHORUS DERIVATIVES AS NOVEL SOS1 INHIBITORS” (BAYER AKTIENGESELLSCHAFT, priority 2021, published 2024).
